In PubChem BioAssay (NCI):
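Method: 48-hour compound exposure of cells in 96-well plates, five concentrations, linear interpolation of endpoints. TGI: total growth inhibition.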

Key:
Test in all cases: DTP human tumour cell line panel, 48 h
786-0 renal = system: 786-0 renal
A498 renal = system: A498 renal
A549 NSCLC = system: A549 NSCLC
ACHN renal = system: ACHN renal
BT-549 breast = system: BT-549 breast
CAKI-1 renal = system: CAKI-1 renal
CCRF-CEM leukemia = system: CCRF-CEM leukemia
COLO 205 colon = system: COLO 205 colon
DU-145 prostate = system: DU-145 prostate
EKVX NSCLC = system: EKVX NSCLC
HCT-116 colon = system: HCT-116 colon
HCT-15 colon = system: HCT-15 colon
HL-60(TB) leukemia = system: HL-60(TB) leukemia
HOP-62 NSCLC = system: HOP-62 NSCLC
HOP-92 NSCLC = system: HOP-92 NSCLC
HS 578T breast = system: HS 578T breast
HT29 colon = system: HT29 colon
IGROV1 ovarian = system: IGROV1 ovarian
K-562 leukemia = system: K-562 leukemia
KM12 colon = system: KM12 colon
LOX IMVI melanoma = system: LOX IMVI melanoma
M14 melanoma = system: M14 melanoma
MALME-3M melanoma = system: MALME-3M melanoma
MCF7 breast = system: MCF7 breast
MDA-MB-231 breast = system: MDA-MB-231 breast
MDA-MB-435 = system: MDA-MB-435
MDA-N = system: MDA-N
MOLT-4 leukemia = system: MOLT-4 leukemia
NCI-H226 lung = system: NCI-H226 lung
NCI-H23 lung = system: NCI-H23 lung
NCI-H460 lung = system: NCI-H460 lung
NCI-H522 lung = system: NCI-H522 lung
NCI/ADR-RES ovarian = system: NCI/ADR-RES ovarian
OVCAR-3 ovarian = system: OVCAR-3 ovarian
OVCAR-4 ovarian = system: OVCAR-4 ovarian
OVCAR-5 ovarian = system: OVCAR-5 ovarian
OVCAR-8 ovarian = system: OVCAR-8 ovarian
PC-3 prostate = system: PC-3 prostate
RPMI-8226 leukemia = system: RPMI-8226 leukemia
RXF 393 renal = system: RXF 393 renal
SF-268 CNS = system: SF-268 CNS
SF-295 CNS = system: SF-295 CNS
SF-539 CNS = system: SF-539 CNS
SK-MEL-2 melanoma = system: SK-MEL-2 melanoma
SK-MEL-28 melanoma = system: SK-MEL-28 melanoma
SK-MEL-5 melanoma = system: SK-MEL-5 melanoma
SK-OV-3 ovarian = system: SK-OV-3 ovarian
SN12C renal = system: SN12C renal
SNB-19 CNS = system: SNB-19 CNS
SNB-75 CNS = system: SNB-75 CNS
SR leukemia = system: SR leukemia
SW-620 colon = system: SW-620 colon
T-47D breast = system: T-47D breast
TK-10 renal = system: TK-10 renal
U251 CNS = system: U251 CNS
UACC-257 melanoma = system: UACC-257 melanoma
UACC-62 melanoma = system: UACC-62 melanoma
UO-31 renal = system: UO-31 renal

With `COc1ccc(C(=O)N/N=C2\C(=O)c3c(C)cc(C)cc3CC2(C)C)cc1` the TGI (786-0 renal) was 36.1 µM, the TGI (A498 renal) was 42.4 µM and the TGI (A549 NSCLC) was 44.2 µM. The TGI (ACHN renal) was 58.7 µM, the TGI (BT-549 breast) was 36.2 µM and the TGI (CAKI-1 renal) was over 100 µM. The TGI (CCRF-CEM leukemia) was 65.6 µM, the TGI (COLO 205 colon) was 49.3 µM and the TGI (DU-145 prostate) was 63.8 µM. The TGI (EKVX NSCLC) was 70.1 µM, the TGI (HCT-116 colon) was 32.1 µM and the TGI (HCT-15 colon) was 64.3 µM. For the same compound, the TGI (HL-60(TB) leukemia) was 51.5 µM, the TGI (HOP-62 NSCLC) was 37.4 µM and the TGI (HOP-92 NSCLC) was 31.3 µM. The TGI (HS 578T breast) was 41.9 µM, the TGI (HT29 colon) was 36.9 µM and the TGI (IGROV1 ovarian) was 41.5 µM. The TGI (K-562 leukemia) was 64.7 µM, the TGI (KM12 colon) was 39.9 µM and the TGI (LOX IMVI melanoma) was 34.2 µM. For the same compound, the TGI (M14 melanoma) was 38.8 µM, the TGI (MALME-3M melanoma) was 31.6 µM and the TGI (MCF7 breast) was 36.4 µM. The TGI (MDA-MB-231 breast) was 56.1 µM, the TGI (MDA-MB-435) was 35.1 µM and the TGI (MDA-N) was 39.3 µM. The TGI (MOLT-4 leukemia) was 37.3 µM, the TGI (NCI-H226 lung) was 45.7 µM and the TGI (NCI-H23 lung) was over 100 µM. For the same compound, the TGI (NCI-H460 lung) was 78.4 µM, the TGI (NCI-H522 lung) was 33.6 µM and the TGI (NCI/ADR-RES ovarian) was 80.6 µM. The TGI (OVCAR-3 ovarian) was 30.9 µM, the TGI (OVCAR-4 ovarian) was over 100 µM and the TGI (OVCAR-5 ovarian) was 55.5 µM. The TGI (OVCAR-8 ovarian) was 56.6 µM, the TGI (PC-3 prostate) was 47.7 µM and the TGI (RPMI-8226 leukemia) was 57.5 µM. For the same compound, the TGI (RXF 393 renal) was 32.6 µM, the TGI (SF-268 CNS) was 42.9 µM and the TGI (SF-295 CNS) was 40.1 µM. The TGI (SF-539 CNS) was 46 µM, the TGI (SK-MEL-2 melanoma) was 36.2 µM and the TGI (SK-MEL-28 melanoma) was 42.2 µM. It also gave a TGI (SK-MEL-5 melanoma) of 31.9 µM, a TGI (SK-OV-3 ovarian) of over 100 µM and a TGI (SN12C renal) of 37.2 µM. The TGI (SNB-19 CNS) was 84 µM, the TGI (SNB-75 CNS) was 56.5 µM and the TGI (SR leukemia) was 47.9 µM. For the same compound, the TGI (SW-620 colon) was 84.2 µM, the TGI (T-47D breast) was 40.4 µM and the TGI (TK-10 renal) was over 100 µM. It also gave a TGI (U251 CNS) of 31.9 µM, a TGI (UACC-257 melanoma) of 98.5 µM and a TGI (UACC-62 melanoma) of 31.6 µM.
`CC(=O)N1N=C(c2cc(C)ccc2O)CC1c1cccc(Cl)c1` (configuration not stated) was tested, and the TGI (786-0 renal) was over 100 µM, the TGI (A549 NSCLC) was 47.4 µM and the TGI (ACHN renal) was 47.8 µM. It also gave a TGI (BT-549 breast) of over 100 µM, a TGI (CAKI-1 renal) of over 100 µM and a TGI (CCRF-CEM leukemia) of 57.8 µM. The TGI (COLO 205 colon) was 21.9 µM, the TGI (DU-145 prostate) was over 100 µM and the TGI (EKVX NSCLC) was 91.8 µM. The TGI (HCT-116 colon) was over 100 µM, the TGI (HCT-15 colon) was 5.51 µM and the TGI (HL-60(TB) leukemia) was 42.4 µM. It also gave a TGI (HOP-62 NSCLC) of over 100 µM, a TGI (HOP-92 NSCLC) of 37 µM and a TGI (HS 578T breast) of 43 µM. For the same compound, the TGI (HT29 colon) was 40.2 µM, the TGI (IGROV1 ovarian) was 8.45 µM and the TGI (K-562 leukemia) was over 100 µM. It also gave a TGI (KM12 colon) of over 100 µM, a TGI (LOX IMVI melanoma) of 39.6 µM and a TGI (M14 melanoma) of 84 µM. It also gave a TGI (MALME-3M melanoma) of 62.1 µM, a TGI (MCF7 breast) of 34.6 µM and a TGI (MDA-MB-231 breast) of 82.4 µM. For the same compound, the TGI (MDA-MB-435) was 4.05 µM, the TGI (MDA-N) was 5.44 µM and the TGI (MOLT-4 leukemia) was 28 µM. The TGI (NCI-H226 lung) was 58.8 µM, the TGI (NCI-H23 lung) was 68.1 µM and the TGI (NCI-H460 lung) was 61.9 µM. It also gave a TGI (NCI-H522 lung) of 14.3 µM, a TGI (NCI/ADR-RES ovarian) of 61.2 µM and a TGI (OVCAR-3 ovarian) of over 100 µM. The TGI (OVCAR-4 ovarian) was 54.8 µM, the TGI (OVCAR-5 ovarian) was over 100 µM and the TGI (OVCAR-8 ovarian) was over 100 µM. It also gave a TGI (PC-3 prostate) of 66.1 µM, a TGI (RPMI-8226 leukemia) of 26.5 µM and a TGI (RXF 393 renal) of 34.2 µM. The TGI (SF-268 CNS) was 50.5 µM, the TGI (SF-295 CNS) was 65 µM and the TGI (SF-539 CNS) was 69.8 µM. It also gave a TGI (SK-MEL-2 melanoma) of 28.8 µM, a TGI (SK-MEL-5 melanoma) of 27.8 µM and a TGI (SK-OV-3 ovarian) of 54.9 µM. For the same compound, the TGI (SN12C renal) was 77 µM, the TGI (SNB-19 CNS) was 28.5 µM and the TGI (SR leukemia) was 9.42 µM. It also gave a TGI (SW-620 colon) of 93.5 µM, a TGI (T-47D breast) of over 100 µM and a TGI (TK-10 renal) of 68.7 µM. The TGI (U251 CNS) was 39.7 µM, the TGI (UACC-257 melanoma) was 41.6 µM and the TGI (UACC-62 melanoma) was 35.2 µM. It also gave a TGI (UO-31 renal) of 50.3 µM.
